The source made the active and inactive calls. No cut-off for these calls is given here.

What all share (assay type): functional, organism-based
For test [1], the system named is Bombyx mori. Description: Induction of precocious metamorphosis in newly-molted fourth-instar larvae of Bombyx mori at 1 ug.
Test [2] concerns Bombyx mori. Description: Induction of precocious metamorphosis in fourth-instar larvae of Bombyx mori at 0.1 ug.
For test [3], the system named is Bombyx mori. Description: Induction of precocious metamorphosis in fourth-instar larvae of Bombyx mori at 10 ug.
In test [4] the test system is Bombyx mori. Description: Induction of precocious metamorphosis in fourth-instar larvae of Bombyx mori at 40 ug.
Test [5] has as its system Bombyx mori. Description: Induction of precocious metamorphosis in Bombyx mori.
Test [6] has as its system Bombyx mori. Description: Induction of precocious metamorphosis in newly-molted fourth-instar larvae of Bombyx mori.
The test system of test [7] is Bombyx mori. Description: Induction of precocious metamorphosis in 24-hr old 3rd-instar larvae of Bombyx mori.
Test [8] relates to Bombyx mori. Description: Induction of precocious metamorphosis in fourth-instar larvae of Bombyx mori.
In test [9] the test system is Bombyx mori. Description: Induction of precocious metamorphosis in fourth-instar larvae of Bombyx mori in presence of JH agonist methoprene.
Test [10] deals with Bombyx mori. Description: Induction of precocious metamorphosis in fourth-instar larvae of Bombyx mori in presence of 20-hydroxyecdysone.

With `CCCC[C@@H](COc1ccc(C(=O)OCC)cc1)Cc1ccccc1`, the result in [1] and in test [2] was Active. Also, the outcome in [3] and in test [4] was inactive.

For the compound `CCCCCC(COc1ccc(C(=O)OCC)cc1)Cc1ccccc1` (stereo not given), in test [5], the outcome was Active.

Take `CCCCC(COc1ccc(C(=O)OCC)cc1)Oc1ccc(C)nc1` (stereo not given): the result in test [6] and in test [5] was Active.

Consider `CCOC(=O)c1ccc(OCC(CC)OC(=O)C(C)(C)C)cc1` (stereo not given), for which the outcome in test [6] and in test [7] was inactive. For the same compound, in test [8], the outcome was Active.

For the compound `CCCCC(COc1ccc(C(=O)OCC)cc1)Cc1ccccc1` (racemic), the result in [1], in test [5], in test [10] and in [8] was Active. In addition, the Activity result in test [6] was “Dose-dependent effect”. In addition, the result in test [9] and in test [7] was inactive.

Turning to `CCOC(=O)c1ccc(OCC(CC)Oc2ccc(C)nc2)cc1` (stereo not given), the outcome in test [5] was Active.

Turning to `CCCCC(COc1ccc(C(=O)OCC)cc1)Oc1ccccc1` (stereo not given), the outcome in test [6] and in [5] was Active.

Consider `CCOC(=O)c1ccc(OCC(Oc2ccc(C)nc2)C(C)(C)C)cc1` (stereo not given), for which the outcome in test [5] was Active.

`CCCC[C@H](COc1ccc(C(=O)OCC)cc1)Cc1ccccc1`: the outcome in test [1] and in test [2] was Active. In addition, the outcome in test [3] and in test [4] was inactive.

The record behind these values is ChEMBL document CHEMBL3045014, “Synthesis and biological activity of novel anti-juvenile hormone agents” (J Pestic Sci, 2008).
